The values that follow come from ChEMBL document CHEMBL4651402, “Screening of ~5500 FDA-approved drugs and clinical candidates for anti-SARS-CoV-2 activity” (2021).

As usually defined, the CC50 is the concentration giving 50% cytotoxicity. Read a high CC50 as lower toxicity to the cells.

SMILES strings stand for the structures.

In one series the test system is SARS-CoV-2. Nature of the series: microbe, parasite or virus in culture. The class given is functional, organism-based, Chlorocebus sabaeus, Vero C1008. The settings on record: Severe acute respiratory syndrome coronavirus 2, Vero C1008, 48 h; read-out: IC50.
As to `C#C[C@]1(O)CCC2C3CCc4cc(OC5CCCC5)ccc4C3CCC21C` (some centres not stated), the IC50 was above 100 µM.
As to `OCc1cc(C(O)CNCCCCCCOCCCCc2ccccc2)ccc1O` (configuration not stated) [SALMETEROL], the IC50 is above 100 µM.
The same measure, in the same setting: the same measure for `COc1cc2c(Oc3ccc4[nH]c(C)cc4c3F)ccnc2cc1OCC1(N)CC1` [CATEQUENTINIB]: above 100 µM; for `CCN(CC)CCCNc1cc(OC)cc2cccnc12`: above 100 µM.
Still for that read-out and setting: the same measure for `CNCCC=C1c2ccccc2C=Cc2ccccc21`: above 50.1 µM.
`O=C1NC2CCCCN2C12CCN(CCCN1c3ccccc3CCc3ccc(Cl)cc31)CC2` (configuration not stated) [MOSAPRAMINE]: the IC50 was above 100 µM.
Same read-out and setting: as for `CCCCN(CCCC)CCCOc1ccc(C(=O)c2c(CC)cc3ccccn23)cc1` [BUTOPROZINE], the figure is above 100 µM.
The same measure, in the same setting: as for `CN1C2CCC1CC(OC(c1ccccc1)c1ccc(Cl)cc1)C2` (configuration not stated), the figure is above 100 µM; as for `CN1CCC(OC(=O)C(Oc2ccc(Cl)cc2)Oc2ccc(Cl)cc2)CC1` [LIFIBRATE], above 100 µM.
The same measure, in the same setting: the same measure for `COc1ccc2c(c1)N(CCCN(C)C)c1ccccc1S2` [METHOXYPROMAZINE]: above 100 µM.
For `NC(CO)(CO)CCc1ccc(Sc2cccc(OCc3ccccc3)c2)cc1Cl` [MOCRAVIMOD], the IC50 is above 100 µM.
On the same count and under the same terms, the same measure for `Cc1ccc(C(=O)Nc2ccc(CN3CCN(C)CC3)c(C(F)(F)F)c2)cc1C#Cc1cnc2cccnn12` [PONATINIB]: above 100 µM.

The series is the same for the next values; noted with them: Severe acute respiratory syndrome coronavirus 2, Vero C1008, 48 h; read-out: pIC50 (converted).
With `C#C[C@]1(O)CCC2C3CCc4cc(OC5CCCC5)ccc4C3CCC21C` (some centres not stated), the IC50 was above 100 µM.
The same measure, in the same setting: as for `OCc1cc(C(O)CNCCCCCCOCCCCc2ccccc2)ccc1O` (configuration not stated) [SALMETEROL], the figure is above 100 µM.
Consider `COc1cc2c(Oc3ccc4[nH]c(C)cc4c3F)ccnc2cc1OCC1(N)CC1` [CATEQUENTINIB], for which the IC50 is above 100 µM.
On the same count and under the same terms, the same measure for `CCN(CC)CCCNc1cc(OC)cc2cccnc12`: above 100 µM; for `CNCCC=C1c2ccccc2C=Cc2ccccc21`: above 50.1 µM; for `O=C1NC2CCCCN2C12CCN(CCCN1c3ccccc3CCc3ccc(Cl)cc31)CC2` (configuration not stated) [MOSAPRAMINE]: above 100 µM.
Same read-out and setting: the same measure for `CCCCN(CCCC)CCCOc1ccc(C(=O)c2c(CC)cc3ccccn23)cc1` [BUTOPROZINE]: above 100 µM; for `CN1C2CCC1CC(OC(c1ccccc1)c1ccc(Cl)cc1)C2` (configuration not stated): above 100 µM; for `CN1CCC(OC(=O)C(Oc2ccc(Cl)cc2)Oc2ccc(Cl)cc2)CC1` [LIFIBRATE]: above 100 µM.
Still for that read-out and setting: the same measure for `COc1ccc2c(c1)N(CCCN(C)C)c1ccccc1S2` [METHOXYPROMAZINE]: above 100 µM; for `NC(CO)(CO)CCc1ccc(Sc2cccc(OCc3ccccc3)c2)cc1Cl` [MOCRAVIMOD]: above 100 µM; for `Cc1ccc(C(=O)Nc2ccc(CN3CCN(C)CC3)c(C(F)(F)F)c2)cc1C#Cc1cnc2cccnn12` [PONATINIB]: above 100 µM.

System in a further series: not listed separately
Nature of the series: in vitro. The settings on record: chlorocebus sabaeus, Vero E6 (Vero C1008) cells, CC50.
With `C#C[C@]1(O)CCC2C3CCc4cc(OC5CCCC5)ccc4C3CCC21C` (some centres not stated), the half-maximal cytotoxic concentration (CC50) at 48 h came out at 7.59 µM.
As to `OCc1cc(C(O)CNCCCCCCOCCCCc2ccccc2)ccc1O` (configuration not stated) [SALMETEROL], half-maximal cytotoxicity (CC50 at 48 h) was put at 18.6 µM.
On the same count and under the same terms, as for `COc1cc2c(Oc3ccc4[nH]c(C)cc4c3F)ccnc2cc1OCC1(N)CC1` [CATEQUENTINIB], the figure is 5.25 µM; as for `CCN(CC)CCCNc1cc(OC)cc2cccnc12`, above 100 µM.
Compound `CNCCC=C1c2ccccc2C=Cc2ccccc21` came in with a CC50 at 48 h of 23.4 µM.
`O=C1NC2CCCCN2C12CCN(CCCN1c3ccccc3CCc3ccc(Cl)cc31)CC2` (configuration not stated) [MOSAPRAMINE] returned a CC50 at 48 h of 8.13 µM.
The same measure, in the same setting: as for `CCCCN(CCCC)CCCOc1ccc(C(=O)c2c(CC)cc3ccccn23)cc1` [BUTOPROZINE], the figure is 6.61 µM; as for `CN1C2CCC1CC(OC(c1ccccc1)c1ccc(Cl)cc1)C2` (configuration not stated), 8.13 µM; as for `CN1CCC(OC(=O)C(Oc2ccc(Cl)cc2)Oc2ccc(Cl)cc2)CC1` [LIFIBRATE], 38 µM.
Turning to `COc1ccc2c(c1)N(CCCN(C)C)c1ccccc1S2` [METHOXYPROMAZINE], the CC50 at 48 h worked out at 14.1 µM.
The same measure, in the same setting: the same measure for `NC(CO)(CO)CCc1ccc(Sc2cccc(OCc3ccccc3)c2)cc1Cl` [MOCRAVIMOD]: 3.06 µM.
The same measure, in the same setting: as for `Cc1ccc(C(=O)Nc2ccc(CN3CCN(C)CC3)c(C(F)(F)F)c2)cc1C#Cc1cnc2cccnn12` [PONATINIB], the figure is 0.989 µM.

The same series, now with this note: chlorocebus sabaeus, Vero E6 (Vero C1008) cells, pCC50.
Consider `C#C[C@]1(O)CCC2C3CCc4cc(OC5CCCC5)ccc4C3CCC21C` (some centres not stated), for which the cytotoxic concentration (CC50) at 48 h was 7.59 µM.
`OCc1cc(C(O)CNCCCCCCOCCCCc2ccccc2)ccc1O` (configuration not stated) [SALMETEROL] gave a CC50 at 48 h of 18.6 µM.
Still for that read-out and setting: the same measure for `COc1cc2c(Oc3ccc4[nH]c(C)cc4c3F)ccnc2cc1OCC1(N)CC1` [CATEQUENTINIB]: 5.25 µM; for `CCN(CC)CCCNc1cc(OC)cc2cccnc12`: above 100 µM.
Consider `CNCCC=C1c2ccccc2C=Cc2ccccc21`, for which it took 23.4 µM to reach half-maximal cytotoxicity (CC50 at 48 h).
Compound `O=C1NC2CCCCN2C12CCN(CCCN1c3ccccc3CCc3ccc(Cl)cc31)CC2` (configuration not stated) [MOSAPRAMINE] had a 50% cytotoxic concentration (CC50) at 48 h of 8.13 µM.
Still for that read-out and setting: as for `CCCCN(CCCC)CCCOc1ccc(C(=O)c2c(CC)cc3ccccn23)cc1` [BUTOPROZINE], the figure is 6.61 µM; as for `CN1C2CCC1CC(OC(c1ccccc1)c1ccc(Cl)cc1)C2` (configuration not stated), 8.13 µM; as for `CN1CCC(OC(=O)C(Oc2ccc(Cl)cc2)Oc2ccc(Cl)cc2)CC1` [LIFIBRATE], 38 µM.
In turn, `COc1ccc2c(c1)N(CCCN(C)C)c1ccccc1S2` [METHOXYPROMAZINE] showed a cytotoxic concentration (CC50) at 48 h of 14.1 µM.
Still for that read-out and setting: the same measure for `NC(CO)(CO)CCc1ccc(Sc2cccc(OCc3ccccc3)c2)cc1Cl` [MOCRAVIMOD]: 3.02 µM; for `Cc1ccc(C(=O)Nc2ccc(CN3CCN(C)CC3)c(C(F)(F)F)c2)cc1C#Cc1cnc2cccnn12` [PONATINIB]: 0.977 µM.

The next series deals with SARS-CoV-2. The experiment in a line: microbe, parasite or virus in culture. The settings on record: Severe acute respiratory syndrome coronavirus 2, Vero C1008, 48 h.
The compound `C#C[C@]1(O)CCC2C3CCc4cc(OC5CCCC5)ccc4C3CCC21C` (some centres not stated) displayed an IC50 of 8.71 µM.
`OCc1cc(C(O)CNCCCCCCOCCCCc2ccccc2)ccc1O` (configuration not stated) [SALMETEROL] yielded an IC50 of 19.1 µM.
The same measure, in the same setting: as for `COc1cc2c(Oc3ccc4[nH]c(C)cc4c3F)ccnc2cc1OCC1(N)CC1` [CATEQUENTINIB], the figure is above 100 µM; as for `CCN(CC)CCCNc1cc(OC)cc2cccnc12`, 24.6 µM.
On the same count and under the same terms, as for `CNCCC=C1c2ccccc2C=Cc2ccccc21`, the figure is above 50.1 µM; as for `O=C1NC2CCCCN2C12CCN(CCCN1c3ccccc3CCc3ccc(Cl)cc31)CC2` (configuration not stated) [MOSAPRAMINE], 7.41 µM.
The same measure, in the same setting: as for `CCCCN(CCCC)CCCOc1ccc(C(=O)c2c(CC)cc3ccccn23)cc1` [BUTOPROZINE], the figure is above 100 µM; as for `CN1C2CCC1CC(OC(c1ccccc1)c1ccc(Cl)cc1)C2` (configuration not stated), 9.77 µM.
`CN1CCC(OC(=O)C(Oc2ccc(Cl)cc2)Oc2ccc(Cl)cc2)CC1` [LIFIBRATE]: the IC50 was above 100 µM.
In the case of `COc1ccc2c(c1)N(CCCN(C)C)c1ccccc1S2` [METHOXYPROMAZINE], the IC50 is above 20 µM.
Same read-out and setting: the same measure for `NC(CO)(CO)CCc1ccc(Sc2cccc(OCc3ccccc3)c2)cc1Cl` [MOCRAVIMOD]: 3.31 µM; for `Cc1ccc(C(=O)Nc2ccc(CN3CCN(C)CC3)c(C(F)(F)F)c2)cc1C#Cc1cnc2cccnn12` [PONATINIB]: above 100 µM.

The same series, now with this note: Severe acute respiratory syndrome coronavirus 2, Vero C1008, 48 h, read-out: pIC50 (converted).
Turning to `C#C[C@]1(O)CCC2C3CCc4cc(OC5CCCC5)ccc4C3CCC21C` (some centres not stated), the IC50 was 8.71 µM.
Same read-out and setting: the same measure for `OCc1cc(C(O)CNCCCCCCOCCCCc2ccccc2)ccc1O` (configuration not stated) [SALMETEROL]: 19.1 µM.
On the same count and under the same terms, the same measure for `COc1cc2c(Oc3ccc4[nH]c(C)cc4c3F)ccnc2cc1OCC1(N)CC1` [CATEQUENTINIB]: above 100 µM; for `CCN(CC)CCCNc1cc(OC)cc2cccnc12`: 24.5 µM.
On the same count and under the same terms, as for `CNCCC=C1c2ccccc2C=Cc2ccccc21`, the figure is above 50.1 µM; as for `O=C1NC2CCCCN2C12CCN(CCCN1c3ccccc3CCc3ccc(Cl)cc31)CC2` (configuration not stated) [MOSAPRAMINE], 7.41 µM.
Regarding `CCCCN(CCCC)CCCOc1ccc(C(=O)c2c(CC)cc3ccccn23)cc1` [BUTOPROZINE], the IC50 is above 100 µM.
Same read-out and setting: the same measure for `CN1C2CCC1CC(OC(c1ccccc1)c1ccc(Cl)cc1)C2` (configuration not stated): 9.77 µM.
The same measure, in the same setting: the same measure for `CN1CCC(OC(=O)C(Oc2ccc(Cl)cc2)Oc2ccc(Cl)cc2)CC1` [LIFIBRATE]: above 100 µM; for `COc1ccc2c(c1)N(CCCN(C)C)c1ccccc1S2` [METHOXYPROMAZINE]: above 20 µM; for `NC(CO)(CO)CCc1ccc(Sc2cccc(OCc3ccccc3)c2)cc1Cl` [MOCRAVIMOD]: 3.31 µM.
`Cc1ccc(C(=O)Nc2ccc(CN3CCN(C)CC3)c(C(F)(F)F)c2)cc1C#Cc1cnc2cccnn12` [PONATINIB]: the IC50 was above 100 µM.
